Series [1] concerns GM 15850 (lymphoblastoid cells line) cells. Kind of series: In-cell deacetylase inhibition assay (DAC assay). The conditions noted are these: Homo sapiens, GM15850; GM 15850 cells, 4 h incubation; read-out: 850 DAC (in-cell deacetylase inhibition IC50). In kind it is cell-based. The protocol: Compound dilutions were made in 100% DMSO followed by parallel dilution in media with 2% DMSO. 10 μl of the compound dilutions were added to the cells to achieve the desired concentrations. The final concentration of DMSO in each well was 0.2%. The cells were incubated for 4 h at 37° C. with 5% CO2. After incubation, the cells were centrifuged down and the supernatant was removed. […] The reaction was stopped after 30 min incubation by addition of 50 μL developer (6 mg/mL trypsin in HDAC assay buffer). The reaction was allowed to develop for 30 min at room temperature and the fluorescence signal was detected using a fluorometer (Spectramax M2, Molecular Devices, Sunnyvale, Calif.) with excitation and emission wavelengths of 360 nm and 470 nm respectively. The data was fitted to a sigmoidal dose response equation with variable slope in GraphPad Prism 5.0 (GraphPad Software, La Jolla, Calif.) to determine IC50. Bottom and top of the curve were fixed to the average fluorescence response of control wells with no cells and cells but no compound respectively.

In the next series the test system is HCT116 cells. Briefly: Cell proliferation assay. In kind it is cell-based. The conditions noted are these: Homo sapiens, HCT-116, 72 h, read-out: Hct-116 (anti-proliferation IC50). The protocol:
HCT116 cells (5000 cells/well) in 80 μL McCoy's 5A medium containing 10% v/v FBS, 1% v/v penicillin/streptomycin and 1% v/v L-glutamine were incubated in 96-well plates with compounds at various concentrations for 72 h at 37° C. in a 5% CO2 atmosphere. The compound dilutions were made in 100% DMSO followed by parallel dilutions in media. The final concentration of DMSO in each well was 0.05%. After 72 h, 20 μL of Cell titer 96 aqueous one solution (Promega Corporation, Madison, Wis.) were added to the cells and the plate was incubated at 37° C. for another 4 h. The absorbance at 490 nm was then recorded on a 96-well plate reader (Spectramax M2, Molecular Devices, Sunnyvale, Calif.). Data analysis was performed in Microsoft Excel (Microsoft Corp, Redmond, Wash.).

The nature of series [2]: Brain penetration studies.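 Also: compound levels in brain and plasma quantified by LC/MS/MS, sampled from pre-dose up to 4 h after dosing, three mice per dose and time point.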 In kind it is in vivo. The following applies: C57/BL6/J, mouse, brain and plasma; mice, s.c. 5 or 50 mg/kg or i.v. 5 mg/kg; read-out: BPR (brain/plasma ratio, Cmax(brain)/Cmax(plasma)).
Procedure: Test compounds were prepared at either 0.5 mg/ml or 5 mg/ml in 30% hydroxypropyl-β-cyclodextrin, 100 mM sodium acetate pH 5.5, 5% DMSO. C57/BL6/J mice were dosed s.c. at 5 mg/kg or 50 mg/kg, or i.v. at 5 mg/kg. Animals were euthanized at pre-dose, 5, 15, 30 min, 1, 2 and 4 hours post-dose and plasma and brain obtained. Three animals per dose per time points were used. The levels of compound in the plasma and brain were determined by standard LC/MS/MS methods. Brain/plasma ratio (BPR) was calculated as the ratio of the Cmax(brain)/Cmax(plasma).
The next series relates to C57BL/6J male mice. Kind of series: Long term memory for object recognition. In kind it is in vivo. The conditions noted are these: s.c. 3, 10, 30 mg/kg. The method, then: C57BL/6J male mice were handled 1-2 min for 5 days and were habituated to the experimental apparatus 5 min a day for 4 consecutive days in the absence of objects. […] 24-h later mice were tested for memory retention (5 min) using the object recognition memory task (ORM), in which a familiar object was replaced with a novel one. All training and testing trials were videotaped and analyzed by individuals blind to the treatment condition and the genotype of subjects. A mouse was scored as exploring an object when its head was oriented toward the object within a distance of 1 cm or when the nose was touching the object. The relative exploration time was recorded and expressed by a discrimination index [DI=(tnovel−tfamiliar)/(tnovel+tfamiliar)×100].

These results are taken from patent US10059723B2 (BIOMARIN PHARMACEUTICAL INC., priority 2011, dated 2018).

As to `Nc1ccccc1NC(=O)c1ccc(C=C2CN(Cc3cccnc3)C2)c(Cl)c1` [F6], the IC50 in series [1] was 10 to 20 µM.
In the case of `Nc1ccccc1NC(=O)/C=C/c1cnn(CCCc2ccccc2)c1` [D8], the IC50 was < 5 µM with HCT116 cells and 1 to 5 µM in series [1]. The Kp in series [2] is 0.2 to 0.5.
`Nc1cc(F)ccc1NC(=O)/C=C/c1cnn(C/C=C/c2ccccc2)c1` [D2, (E)-N-(2-amino-4-fluorophenyl)-3-(1-cinnamyl-1H-pyrazol-4-yl)acrylamide]: the IC50 (in the series with HCT116 cells; in series [1]) was > 20 µM in each case. For the same compound, the Kp in series [2] lay within 0.2 to 0.5. Moreover, the “dose dependence of the effect on long-term memory” value in the series on C57BL/6J male mice is recorded as “no effect of dose”.
Regarding `Cc1nn(C/C=C/c2ccccc2)c(C)c1/C=C/C(=O)Nc1ccccc1N` [G2, (E)-N-(2-aminophenyl)-3-(1-cinnamyl-3,5-dimethyl-1H-pyrazol-4-yl)acrylamide], the IC50 with HCT116 cells was > 20 µM.
In the case of `CN(CCCn1cc(/C=C/C(=O)Nc2ccccc2N)cn1)c1ccccc1` [D12], in series [2], the Kp fell in the range of 0.5 to 1. Moreover, the IC50 in series [1] lay in the range of 1 to 5 µM.
As for `Nc1ccccc1NC(=O)/C=C/c1cnn(CCc2ccccc2)c1` [D7], the IC50 in the series on HCT116 cells is < 5 µM; in series [1], 5 to 10 µM. For the same compound, in series [2], the Kp lay in the range of 0.5 to 1.
Turning to `Nc1ccccc1NC(=O)/C=C/c1cnc2ccccn12` [A6, (E)-N-(2-aminophenyl)-3-(imidazo[1,2-a]pyridin-3-yl)acrylamide], the IC50 in the series with HCT116 cells was 10 to 20 µM; in series [1], > 20 µM. Also, in series [2], the Kp lay in the range of 0.1 to 0.2.
Consider `Nc1ccccc1NC(=O)/C=C/c1cnn(CCOCc2ccccc2)c1` [D14], for which the IC50 in series [1] was 5 to 10 µM.
`Nc1ccccc1NC(=O)/C=C/c1cnn(CCCOc2ccccc2)c1` [D15]: in series [1], the IC50 is 1 to 5 µM.
In the case of `CCn1cc(/C=C/C(=O)Nc2ccccc2N)cn1` [C1], the Kp in series [2] was in the range of 0.5 to 1. Besides, the IC50 in series [1] was > 20 µM.
`Nc1ccccc1NC(=O)/C=C/c1cn2ccnc2s1` [A10]: the Kp in series [2] was in the range of 0.2 to 0.5. Further, the IC50 in series [1] lay within 10 to 20 µM.
For `Nc1ccccc1NC(=O)/C=C/c1cnn(CCc2c[nH]c3ccccc23)c1` [D13], the Kp in series [2] is < 0.1. Further, in series [1], the IC50 was 1 to 5 µM.
For the compound `Nc1ccccc1NC(=O)/C=C/c1cnn(CC(F)(F)c2ccccc2)c1` [D10], the IC50 in the series with HCT116 cells was > 20 µM; in series [1], 5 to 10 µM. Moreover, in series [2], the Kp was in the range of 0.5 to 1.
Take `Nc1ccccc1NC(=O)/C=C/c1cn2ccccc2n1` [A9]: the IC50 in series [1] is > 20 µM.
As for `Cn1cnc(/C=C/C(=O)Nc2ccccc2N)c1` [A12], the IC50 in series [1] is > 20 µM.
For the compound `Nc1ccccc1NC(=O)/C=C/c1cnn(Cc2ccccc2)c1` [D4], the IC50 with HCT116 cells was > 20 µM; in series [1], 5 to 10 µM. Also, in series [2], the Kp lay within 0.2 to 0.5.
As to `Nc1ccccc1NC(=O)/C=C/c1cnn(CCCCc2ccccc2)c1` [D9], the IC50 in the series with HCT116 cells lay in the range of 5 to 10 µM; in series [1], 1 to 5 µM. For the same compound, in series [2], the Kp lay within 0.5 to 1.
For the compound `Nc1ccccc1NC(=O)/C=C/c1cnn(CC/C=C/c2ccccc2)c1` [D11], the Kp in series [2] is > 1. Moreover, the IC50 in series [1] lay within 1 to 5 µM.
With `Nc1cc(F)ccc1NC(=O)/C=C/c1cnn(CCOc2ccccc2)c1` [D16], the IC50 in series [1] was 10 to 20 µM.
For `Cc1cccc(Cn2cc(/C=C/C(=O)Nc3ccccc3N)cn2)n1` [D6], the results for the IC50 (in the series with HCT116 cells; in series [1]) were > 20 µM and 10 to 20 µM, respectively. Also, the Kp in series [2] is < 0.1.
For the compound `Nc1ccccc1NC(=O)/C=C/c1cnn(CCOc2ccc(C(F)(F)F)cc2)c1` [B4], in series [2], the Kp fell in the range of 0.2 to 0.5. Further, the IC50 in series [1] was 10 to 20 µM.
In the case of `CN1CCC(Cn2cc(/C=C/C(=O)Nc3ccccc3N)cn2)CC1` [G1, (E)-N-(2-aminophenyl)-3-(1-((1-methylpiperidin-4-yl)methyl)-1H-pyrazol-4-yl)acrylamide], the IC50 with HCT116 cells is > 20 µM.
For the compound `Nc1ccccc1NC(=O)c1ccc(CC2CN(Cc3ccc4cc[nH]c4c3)C2)cc1` [F4], the IC50 is < 5 µM in the series on HCT116 cells and 1 to 5 µM in series [1]. Further, the Kp in series [2] was 0.5 to 1.
As for `Nc1ccccc1NC(=O)/C=C/c1cnn(CCOc2cc(F)cc(Cl)c2)c1` [B5, (E)-N-(2-aminophenyl)-3-(1-(2-(3-chloro-5-fluorophenoxy)ethyl)-1H-pyrazol-4-yl)acrylamide], in series [2], the Kp lay in the range of 0.2 to 0.5. In addition, the IC50 in series [1] fell in the range of 5 to 10 µM.
For the compound `Nc1ccccc1NC(=O)/C=C/c1cnn(CC2CC2)c1` [B1], the IC50 in series [1] was 10 to 20 µM.
Regarding `Nc1ccccc1NC(=O)/C=C/c1cnn(CCOc2ccc(F)cc2)c1` [B6], the IC50 in series [1] is 5 to 10 µM.
As for `Nc1ccccc1NC(=O)c1ccc(C=C2CN(Cc3ccc4cc[nH]c4c3)C2)cc1` [F3], the IC50 with HCT116 cells is < 5 µM; in series [1], 1 to 5 µM. The Kp in series [2] was in the range of 0.2 to 0.5.
On to `Cc1ncc(/C=C/C(=O)Nc2ccccc2N)s1` [A3], for which the IC50 in series [1] was > 20 µM.
Take `Cc1cc(/C=C/C(=O)Nc2ccccc2N)on1` [A5]: the Kp in series [2] lay within 0.2 to 0.5.
With `Nc1ccccc1NC(=O)/C=C/c1cnn(CCOc2ccccc2)c1` [D3, (E)-N-(2-aminophenyl)-3-(1-(2-phenoxyethyl)-1H-pyrazol-4-yl)acrylamide], the IC50 with HCT116 cells is < 5 µM; in series [1], 1 to 5 µM. In addition, the Kp in series [2] was 0.2 to 0.5.
As for `Nc1ccccc1NC(=O)/C=C/c1cnn(CCOc2cc(F)cc(F)c2)c1` [B3, (E)-N-(2-aminophenyl)-3-(1-(2-(3,5-difluorophenoxy)ethyl)-1H-pyrazol-4-yl)acrylamide], in series [2], the Kp was 0.2 to 0.5. In series [1], the IC50 lay in the range of 1 to 5 µM.
As to `Cn1cc(/C=C/C(=O)Nc2cc(F)ccc2N)cn1` [C3], the IC50 in series [1] was > 20 µM.
In the case of `Nc1ccccc1NC(=O)c1ccc(C=C2CN(Cc3ccc4cc[nH]c4c3)C2)c(Cl)c1` [F5, 4-((1-((1H-Indol-6-yl)methyl)azetidin-3-ylidene)methyl)-N-(2-aminophenyl)-3-chlorobenzamide], in series [1], the IC50 is 5 to 10 µM.
As for `Cc1nc(/C=C/C(=O)Nc2ccccc2N)cs1` [A1], the Kp in series [2] was 0.5 to 1. The IC50 in series [1] was > 20 µM.
With `Nc1ccccc1NC(=O)/C=C/c1csc(CC=Cc2ccccc2)n1` [E2, (E)-N-(2-aminophenyl)-3-(2-cinnamylthiazol-4-yl)acrylamide], the IC50 in the series with HCT116 cells is > 20 µM; in series [1] it was 10 to 20 µM. Further, in series [2], the Kp was > 1.
On to `Cc1ccc(C(=O)NCCCCCC(=O)Nc2ccc(F)cc2N)cc1` [RGFP 136, reference compound], for which the “dose dependence of the effect on long-term memory” value in the series on C57BL/6J male mice is reported as “Dose dependent effects”.
Turning to `Nc1ccccc1NC(=O)/C=C/c1cnn(-c2ccccc2)c1` [A11], the Kp in series [2] is > 1.
With `Nc1ccccc1NC(=O)/C=C/c1cc2ccccn2n1` [A8], in series [2], the Kp was 0.5 to 1. In addition, the IC50 in series [1] lay in the range of 10 to 20 µM.
In the case of `CCOCc1cn2cc(/C=C/C(=O)Nc3ccccc3N)sc2n1` [E1, (E)-N-(2-aminophenyl)-3-(6-(ethoxymethyl)imidazo[2,1-b]thiazol-2-yl)acrylamide], in series [1], the IC50 was > 20 µM.
In the case of `Cn1ccc(/C=C/C(=O)Nc2ccccc2N)n1` [A7], the Kp in series [2] lay within 0.5 to 1. Moreover, the IC50 in series [1] is > 20 µM.
Take `Cn1cc(/C=C/C(=O)Nc2ccccc2N)cn1` [A2]: the IC50 in the series on HCT116 cells is > 20 µM; in series [1], 10 to 20 µM. The Kp in series [2] lay in the range of 0.5 to 1.
`Nc1ccccc1NC(=O)c1ccc(C=C2CCN(Cc3cccnc3)CC2)cc1` [F2]: the IC50 in the series on HCT116 cells is < 5 µM; in series [1], 10 to 20 µM. Also, the Kp in series [2] was > 1.
`Nc1ccccc1NC(=O)/C=C/c1cnn(Cc2ccc(F)cc2)c1` [D5]: the IC50 in the series on HCT116 cells was > 20 µM; in series [1], 5 to 10 µM. For the same compound, the Kp in series [2] was 0.1 to 0.2.
Regarding `Nc1ccccc1NC(=O)c1ccc(C=C2CCN(C(=O)OCc3ccccc3)CC2)cc1` [F1], the Kp in series [2] was < 0.1. For the same compound, in series [1], the IC50 was > 20 µM.
`Nc1ccccc1NC(=O)/C=C/c1cnn(C/C=C/c2ccc(F)cc2)c1` [B2]: in series [1], the IC50 fell in the range of 5 to 10 µM.
